Entries after “also recorded” stand apart in the source; their conditions may differ.
How the values were obtained:
[1] = tested on: IL8, MMP1, MMP3 and PGE2; experiment: ELISA of inflammatory mediators in culture medium; format: cell-based, human
Experimental: Quantification of MMP1 and MMP3 content in culture medium was assessed using RayBio-MMP3 and RayBio-MMP1 Elisa Kit (RayBiotech, Inc); IL8 was analyzed by Human IL-8 Elisa kit (Pierce Biotechnology). The levels of prostaglandin E2 (PGE2) were determined using the Prostaglandin E2 EIA Kit Monoclonal (Cayman Chemical Company). Culture media were diluted to fit within the standard curves. For conditioned media (CM) preparation for invasion and in vitro angiogenesis experiments, 12-well plated cells were treated with MMS (or MMS plus inhibitors) for 8 h in the presence of 10% FBS, twice washed with HBSS, and incubated with 700 μL drug/serum-free fresh medium for additional 12 h. Thereafter, the conditioned fresh medium was collected and directly used for migration and invasion experiments in order to reduce freezing associated loss of activity.

[2] = tested on: NFκB-responsive firefly luciferase construct in MDA-MB231 cells; experiment: NFκB gene reporter assay; format: cell-based, human
Experimental: (§1) Prior to transfection, cells were plated in 96-well plates to 80-90% confluence (100 μL antibiotic free-medium) after 24 h. When used, siRNA were incubated by reverse transfection during cells seeding. […] A mixture of non-inducible firefly luciferase construct and constitutively expressing Renilla luciferase construct (40:1) were used as negative controls. Approximately 24 h post-transfection, the medium was changed and the cells were treated for 12 h with alkylating agents (with/out 6 h pre-treatments). At the end of this period, medium was changed to drug-free fresh medium (to minimize the effect of alkylating toxicity on promoters activity) and cells were kept for an additional 12 h.

[3] = tested on: protein sulfhydryl (protein-SH) groups; experiment: Protein sulfhydryl groups (dibromobimane assay); format: cell-based; conditions: 12 h treatment
Experimental: Protein reduced thiol groups (Protein-SH) were measured by dibromobimane assays with minor modifications (PMID:20463849). The 6-well plated cells (500,000 cells) were scraped in 0.6 mL PBS and 200 μL Perchloric acid (6 N) was added to precipitate proteins. The samples were incubated for 5 min in ice, centrifuged (14,000×g) Supernatants containing small peptides and glutathione were discarded and pellets were resuspended in 100 μL NaOH 0.1N, neutralized with 100 μL ice cold Perchloric acid (0.1 N), and 0.1 N PBS was added to keep pH constant. A stock solution of 4 mM dibromobimane in DMSO was added to a final concentration 40 μM, and incubated for 30 30 min at 37° C. Dibromobimane-protein fluorescence was measured at Ex=393 and, Em=477 nm.

[4] = tested on: AP1-responsive firefly luciferase construct in MDA-MB231 cells; experiment: AP-1 gene reporter assay; format: cell-based, human
Experimental: as §1

[5] = tested on: NRF2, GCLC, ER stress markers; experiment: Western blot of NRF2, GCLC and ER stress markers; format: cell-based; conditions: MEFs, MDA-MB231, MCF-7; 8-12 h
Experimental: (§2) Western blot. Protein lysates were prepared using RIPA buffer containing 5% sodium deoxycholate, 0.1% SDS, 0.1% Igepal in PBS with a cocktail of protease and phosphatase inhibitors (1 mM PMSF, 1 mM sodium orthovanadate, 1 mM NaF, and 30 μL/mL aprotinin (Sigma-Aldrich, USA)) and clarified by centrifugation. Protein concentration was determined using Bradford Protein Assay Reagent (Biorad, Hercules, Calif.). Equal amounts of protein were resolved using 8-12% SDS polyacrylamide gel, transferred onto nitrocellulose membranes (Hybond-ECL, GE Healthcare Lifesciences, Piscataway, N.J.) and detected using Lumiglo system (Cell Signaling Technology, Calif.) and x-ray films. Primary antibodies included COX-2 (#4842), NRF2 (D1C9), p-JNK1/2 (Thr183/Tyr185, #4671), p-p38 (Thr180/Tyr182, #9216), p-ERK1/2 (Thr202/Tyr204, #9101), BiP/GRP78 (C50B12), IRE1a (14C10), CHOP (L63F7) and PERK (D11A8) from Cell Signaling Technology; p-IRE1a (Ser724; NB100-2323) from Novus Biologicals; GCLC (Ab41463), beta-actin (ab8227) and ATF6 (Ab37149) from Abcam; p-PERK (Thr 981, sc-32577) and ATF3 (C19) were purchased from Santa Cruz. All primary antibodies were used at 1:1000 dilutions and secondary antibodies were 1:3000 in TBS-T with 5% BSA.

[6] = tested on: MAPKs (ERK1/2, JNK1/2 and p38) and ATF2; experiment: Western blot of MAPK phosphorylation; format: cell-based; conditions: 8 h
Experimental: as §2

[7] = tested on: primary MEFs or breast cancer cells; experiment: Cell viability of MEFs and breast cancer cells with kinase inhibitors; format: cell-based, mouse, human
Experimental: The D. melanogaster embryonic cell line Kc167 was grown in Schneider medium (Invitrogen, Carlsbad, Calif.) supplemented with 10% heat-inactivated (56° C./30 min) fetal bovine serum (FBS), penicillin and streptomycin at 22° C. in a humidified incubator. Primary MEFs were obtained by harvesting 14.5-day C57BL/6J embryos as previously described (Ravi et al., 2009, PLoS Genet 5, e1000527). Briefly, fetal liver and head were removed and the remainder of the embryo was mechanically disaggregated in plating medium. A suspension of single-cells was plated in DMEM (plus 10% FBS, 100 U/mL penicillin and 100 μg/mL streptomycin). MEFs were grown for two passages before freezing aliquots. Aliquots were taken and expanded as needed for each experiment. MDA-MB231, SkBr3 and MCF-7 breast cancer cells lines were obtained from ATCC and grown in DMEM supplemented with 10% inactivated FBS plus antibiotics in a 37° C. humidified incubator at […] atmosphere. Cells were kept and treated in the exponential phase of growing (60-70% confluence). Pharmaceuticals Sorafenib (Santa Cruz Biotechnology), UO126, SP600125, SB239063, celecoxib, buthionine sulfoximine (BSO), cycloheximide (CHX), actinomycin D and BAY117082 (BAY), or antioxidants as N-Acetyl-Cysteine (NAC), glutathione ethyl-ester (GSH-E) and Trolox (all from Sigma-Aldrich, USA) were pre-incubated with cells for 6 to 8 h before treatments with MMS, temozolomide, CDDP (from Sigma-Aldrich, USA) or 4-hydroperoxycyclophosphamide (4-HC; from US Biological). DMSO concentrations were kept to a maximum of 0.1% for all experiments.
Cell viability was assessed using CellTiter-Glo Luminescent Viability assay (Promega) in 384 or 96-well plates white-border clear-bottom plated cells. For caspase-3/7 activity, Caspase-Glo 3/7 Assay kits were used (Promega). For caspase assays, the cells were seeded in 96-well plates and assayed directly after treatments. […] LDH release into culture medium was quantified by Cytotox-96 Non-Radioactive assay kit in agreement with instructions (Promega).

[8] = MDA-MB231, pre-incubation with inhibitor

SMILES	production of IL-8, MMP-1 and MMP-3 ([1]; MDA-MB231 culture medium)	prostaglandin E2 (PGE2) in culture medium and COX-2 protein in lysates ([1]; human cancer cells, 12 h)	activation of NFκB luciferase reporter ([2]; alkylating agent alone)	protein sulfhydryl residues [3]	activation of AP-1 luciferase reporter ([4]; alkylating agent alone)	NRF2 and GCLC protein levels [5]	phosphorylation of MAPK ([6]; MDA-MB231 and MEF)	effect on MMS/alkylation-induced IL8, MMP1, MMP3 and PGE2 secretion and COX-2 ([1]; MDA-MB231, 12 h)	effect on MMS-induced activation of NFκB reporter [2, 8]	effect on MMS-induced activation of AP-1 reporter [4, 8]	effect on viability at low concentrations ([7]; 1 to 5 μM, presence or absence of alkylating agents)	concentration with non-selective cytotoxicity ([7]; breast cell lines and MEFs, GSH depletion, aberrant ROS) [µM]	viability at higher levels ([7]; higher levels of sorafenib)	effect on MMS-induced MAPK phosphorylation ([6]; MDA-MB231 cells)
COS(C)(=O)=O [MMS, methyl-methanesulfonate]	enhances the production of MMP1, MMP3 and IL8	increased levels of prostaglandin E2 (PGE2)	activated both NFκB and AP-1 luciferase reporter constructs	deplete protein sulfhydryl residues	activated both NFκB and AP-1 luciferase reporter constructs	rapidly increased in total and nuclear fractions	increased phosphorylation of the three MAPK	–	–	–	–	–	–	–
CNC(=O)c1cc(Oc2ccc(NC(=O)Nc3ccc(Cl)c(C(F)(F)F)c3)cc2)ccn1 [sorafenib, 4-[4-[[4-chloro-3-(trifluoromethyl)phenyl]carbamoylamino]phenoxy]-N-methyl-pyridine-2-carboxamide]	–	–	–	–	–	–	–	exerted the strongest effect in blocking alkylation-induced IL8, COX-2/PGE2, MMP1 and 3	strong inhibitory effects on both promoters; also recorded: blocked NFκB and AP-1 promoter activation	strong inhibitory effects on both promoters; also recorded: blocked NFκB and AP-1 promoter activation	did not affect MMS/4-HC-induced losses in cell viability	≥ 20	non-selective detriment to both cancer cells and MEFs	blocked both MMS-induced phosphorylation of ERK1/2 and JNK1/2 as well as basal ERK1/2
